Reference: ChEMBL document CHEMBL4665650, “Towards a TREK-1/2 (TWIK-Related K+ Channel 1 and 2) dual activator tool compound: Multi-dimensional optimization of BL-1249” (Bioorg Med Chem Lett, 2019)

Experiments:
[1] = target: T1, Potassium channel subfamily K member 10 (Homo sapiens, UniProt P57789); test: Activation of human TREK2 by thallium flux mobilization assay
T1 sequence (P57789 whole entry): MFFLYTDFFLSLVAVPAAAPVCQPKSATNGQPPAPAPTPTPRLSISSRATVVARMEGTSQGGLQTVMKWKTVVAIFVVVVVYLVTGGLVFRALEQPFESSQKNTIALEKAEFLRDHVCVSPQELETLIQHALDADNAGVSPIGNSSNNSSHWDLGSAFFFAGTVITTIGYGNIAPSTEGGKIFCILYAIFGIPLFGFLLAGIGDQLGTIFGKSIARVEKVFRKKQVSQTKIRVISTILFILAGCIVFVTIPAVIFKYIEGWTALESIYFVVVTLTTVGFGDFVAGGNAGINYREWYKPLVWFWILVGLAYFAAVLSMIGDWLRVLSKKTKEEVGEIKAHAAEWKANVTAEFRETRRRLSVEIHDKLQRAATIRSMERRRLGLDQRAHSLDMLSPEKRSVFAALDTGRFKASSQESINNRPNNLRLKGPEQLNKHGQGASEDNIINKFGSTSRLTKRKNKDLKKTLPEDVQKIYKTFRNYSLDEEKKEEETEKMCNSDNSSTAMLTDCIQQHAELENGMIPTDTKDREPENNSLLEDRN

[2] = target: T2, Potassium channel subfamily K member 2 (Homo sapiens, UniProt O95069); test: Activation of human TREK1 by thallium flux mobilization assay
T2 sequence (O95069 whole entry): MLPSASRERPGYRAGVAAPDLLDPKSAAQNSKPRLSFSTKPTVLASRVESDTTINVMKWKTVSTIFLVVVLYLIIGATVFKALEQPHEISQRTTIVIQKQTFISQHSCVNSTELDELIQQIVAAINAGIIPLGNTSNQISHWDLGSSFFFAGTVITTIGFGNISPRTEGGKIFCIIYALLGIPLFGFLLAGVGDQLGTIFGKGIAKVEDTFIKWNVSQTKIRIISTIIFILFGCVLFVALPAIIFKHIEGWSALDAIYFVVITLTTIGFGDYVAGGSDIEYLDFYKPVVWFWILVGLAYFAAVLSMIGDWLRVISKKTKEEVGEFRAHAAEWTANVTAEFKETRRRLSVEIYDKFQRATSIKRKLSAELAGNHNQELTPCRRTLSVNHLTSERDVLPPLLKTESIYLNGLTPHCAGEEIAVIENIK

[3] = target: T3, Potassium channel subfamily K member 10 (Homo sapiens) (UniProt P57789); test: Activation of human TREK2 at 30 uM by thallium flux mobilization assay relative to control
T3 sequence (whole entry): T1 sequence (P57789 whole entry)

[4] = target: T4, Potassium channel subfamily K member 2 (Homo sapiens) (UniProt O95069); test: Activation of human TREK1 at 30 uM by thallium flux mobilization assay relative to control
T4 sequence (whole entry): T2 sequence (O95069 whole entry)

[5] = target: T3, Potassium channel subfamily K member 10 (Homo sapiens); test: Activation of human TREK2 at 10 uM by thallium flux mobilization assay relative to control
[6] = target: T4, Potassium channel subfamily K member 2 (Homo sapiens); test: Activation of human TREK1 at 10 uM by thallium flux mobilization assay relative to control
[7] = target: Sodium-dependent noradrenaline transporter (Homo sapiens) (UniProt P23975); test: Displacement of [125I]RTI-55 from full length recombinant human NET expressed in MDCK cells at 30 uM after 180 mins by radiometric scintillation analysis relative to control; assay type: cell-based
Rattus norvegicus [8] = species: Rattus norvegicus; test: Displacement of [3H]GABA from rat brain GABA receptor at 30 uM after 20 mins by radiometric scintillation analysis relative to control
Rattus norvegicus [9] = species: Rattus norvegicus; test: Displacement of [125I]-Triiodothyronine from thyroid hormone receptors in rat at 30 uM incubated for 1080 mins by radiometric scintillation analysis relative to control
[10] = target: 5-hydroxytryptamine receptor 1A (Homo sapiens) (UniProt P08908); test: Displacement of [3H]-8-OH-DPAT from full length recombinant human 5HT1A receptor expressed in CHO-K1 cells at 30 uM incubated for 60 mins by radiometric scintillation analysis relative to control; assay type: cell-based
Chain of 5-hydroxytryptamine receptor 1A (Homo sapiens) (P08908 whole entry): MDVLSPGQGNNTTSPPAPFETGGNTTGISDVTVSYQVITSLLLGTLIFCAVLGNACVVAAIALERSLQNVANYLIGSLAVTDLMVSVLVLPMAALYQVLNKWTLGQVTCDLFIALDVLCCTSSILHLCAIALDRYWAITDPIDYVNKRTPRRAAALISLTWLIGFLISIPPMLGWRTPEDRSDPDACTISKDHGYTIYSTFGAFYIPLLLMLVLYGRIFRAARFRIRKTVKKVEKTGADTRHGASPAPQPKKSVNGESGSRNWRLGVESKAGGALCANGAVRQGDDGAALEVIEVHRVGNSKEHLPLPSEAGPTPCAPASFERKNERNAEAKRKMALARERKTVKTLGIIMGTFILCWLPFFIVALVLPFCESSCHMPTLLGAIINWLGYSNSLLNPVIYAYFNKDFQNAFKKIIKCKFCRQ

Rattus norvegicus [11] = species: Rattus norvegicus; test: Displacement of [35S] dATPalphaS from Wistar rat brain P2Y receptor at 30 uM incubated for 180 mins by radiometric scintillation analysis relative to control; assay type: tissue-based
[12] = target: Cysteinyl leukotriene receptor 1 (Homo sapiens) (UniProt Q9Y271); test: Displacement of [3H]LTD4 from full length recombinant human CysLT1 Leukotriene receptor expressed in CHO-K1 cells at 30 uM incubated for 30 mins by radiometric scintillation analysis relative to control; assay type: cell-based
Chain of Cysteinyl leukotriene receptor 1 (Homo sapiens) (Q9Y271 whole entry): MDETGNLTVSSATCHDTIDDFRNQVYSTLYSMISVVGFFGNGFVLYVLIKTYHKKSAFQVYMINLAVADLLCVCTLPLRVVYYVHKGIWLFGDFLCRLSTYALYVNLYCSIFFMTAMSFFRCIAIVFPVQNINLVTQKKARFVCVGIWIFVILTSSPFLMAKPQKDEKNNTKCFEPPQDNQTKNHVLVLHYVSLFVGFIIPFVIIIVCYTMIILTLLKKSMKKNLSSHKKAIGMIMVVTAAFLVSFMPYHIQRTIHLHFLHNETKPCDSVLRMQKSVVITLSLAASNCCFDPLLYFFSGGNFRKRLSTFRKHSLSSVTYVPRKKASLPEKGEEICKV

[13] = target: Androgen receptor (Homo sapiens) (UniProt P10275); test: Displacement of [3H]methyltrienolone from human LNCaP cells derived androgen receptor at 30 uM measured after 1200 mins by radiometric scintillation analysis relative to control; assay type: cell-based
[14] = target: Adenosine receptor A2a (Homo sapiens) (UniProt P29274); test: Displacement of [3H]CGS-21680 from full length recombinant human A2A receptor expressed in HEK293 cells at 30 uM measured after 90 mins by radiometric scintillation analysis relative to control; assay type: cell-based
[15] = target: Adenosine receptor A1 (Homo sapiens) (UniProt P30542); test: Displacement of [3H]DPCPX from recombinant full length human adenosine A1 receptor expressed in CHO-K1 cells at 30 uM incubated for 90 mins by radiometric scintillation analysis relative to control; assay type: cell-based
Chain of Adenosine receptor A1 (Homo sapiens) (P30542 whole entry): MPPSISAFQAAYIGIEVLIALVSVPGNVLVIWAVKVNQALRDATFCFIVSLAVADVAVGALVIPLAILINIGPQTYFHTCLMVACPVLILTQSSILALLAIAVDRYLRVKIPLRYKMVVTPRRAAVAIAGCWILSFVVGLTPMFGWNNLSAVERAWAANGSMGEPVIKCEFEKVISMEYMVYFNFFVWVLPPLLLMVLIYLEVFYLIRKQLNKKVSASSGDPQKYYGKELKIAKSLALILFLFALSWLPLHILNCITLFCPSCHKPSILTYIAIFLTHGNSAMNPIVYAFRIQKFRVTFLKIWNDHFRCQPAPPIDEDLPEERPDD

[16] = target: Potassium/sodium hyperpolarization-activated cyclic nucleotide-gated channel 4 (Homo sapiens) (UniProt Q9Y3Q4); test: Activation of HCN4 (unknown origin) at 30 uM by manual patch clamp method relative to control
Chain of Potassium/sodium hyperpolarization-activated cyclic nucleotide-gated channel 4 (Homo sapiens) (Q9Y3Q4 whole entry): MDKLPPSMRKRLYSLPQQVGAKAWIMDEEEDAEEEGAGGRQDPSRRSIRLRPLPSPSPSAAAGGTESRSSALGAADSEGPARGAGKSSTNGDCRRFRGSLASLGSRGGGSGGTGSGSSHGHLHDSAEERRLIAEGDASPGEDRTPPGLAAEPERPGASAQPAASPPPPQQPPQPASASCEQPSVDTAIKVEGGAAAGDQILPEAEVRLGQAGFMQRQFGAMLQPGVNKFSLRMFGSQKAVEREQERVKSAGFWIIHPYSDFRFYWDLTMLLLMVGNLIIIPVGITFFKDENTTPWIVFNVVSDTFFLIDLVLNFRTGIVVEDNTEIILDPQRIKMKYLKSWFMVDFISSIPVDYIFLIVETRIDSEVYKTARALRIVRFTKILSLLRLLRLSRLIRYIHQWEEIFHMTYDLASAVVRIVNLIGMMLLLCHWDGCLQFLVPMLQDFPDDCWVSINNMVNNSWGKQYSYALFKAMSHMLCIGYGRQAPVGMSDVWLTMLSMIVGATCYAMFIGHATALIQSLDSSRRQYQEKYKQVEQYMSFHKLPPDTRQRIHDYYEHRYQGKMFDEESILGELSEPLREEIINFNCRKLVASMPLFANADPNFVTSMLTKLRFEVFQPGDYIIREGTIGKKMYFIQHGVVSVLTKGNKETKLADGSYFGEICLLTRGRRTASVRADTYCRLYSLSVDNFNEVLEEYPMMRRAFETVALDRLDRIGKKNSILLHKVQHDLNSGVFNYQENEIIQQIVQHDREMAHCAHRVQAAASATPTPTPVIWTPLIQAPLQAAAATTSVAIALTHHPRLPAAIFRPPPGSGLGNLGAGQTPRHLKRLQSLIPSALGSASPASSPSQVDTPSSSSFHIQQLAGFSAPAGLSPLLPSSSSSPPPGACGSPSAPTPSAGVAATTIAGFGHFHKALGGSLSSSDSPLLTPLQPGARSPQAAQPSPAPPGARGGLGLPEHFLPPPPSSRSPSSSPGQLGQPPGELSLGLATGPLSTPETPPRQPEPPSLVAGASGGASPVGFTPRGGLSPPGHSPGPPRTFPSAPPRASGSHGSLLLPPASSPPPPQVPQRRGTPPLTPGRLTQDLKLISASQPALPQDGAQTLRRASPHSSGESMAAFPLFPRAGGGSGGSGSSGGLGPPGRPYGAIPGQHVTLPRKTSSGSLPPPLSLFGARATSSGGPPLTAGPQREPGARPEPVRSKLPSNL

[17] = target: Neuronal acetylcholine receptor subunit alpha-7 (Homo sapiens) (UniProt P36544); test: Inhibition of alpha7 nAChR (unknown origin) at 30 uM by manual patch clamp method relative to control
Chain of Neuronal acetylcholine receptor subunit alpha-7 (Homo sapiens) (P36544 whole entry): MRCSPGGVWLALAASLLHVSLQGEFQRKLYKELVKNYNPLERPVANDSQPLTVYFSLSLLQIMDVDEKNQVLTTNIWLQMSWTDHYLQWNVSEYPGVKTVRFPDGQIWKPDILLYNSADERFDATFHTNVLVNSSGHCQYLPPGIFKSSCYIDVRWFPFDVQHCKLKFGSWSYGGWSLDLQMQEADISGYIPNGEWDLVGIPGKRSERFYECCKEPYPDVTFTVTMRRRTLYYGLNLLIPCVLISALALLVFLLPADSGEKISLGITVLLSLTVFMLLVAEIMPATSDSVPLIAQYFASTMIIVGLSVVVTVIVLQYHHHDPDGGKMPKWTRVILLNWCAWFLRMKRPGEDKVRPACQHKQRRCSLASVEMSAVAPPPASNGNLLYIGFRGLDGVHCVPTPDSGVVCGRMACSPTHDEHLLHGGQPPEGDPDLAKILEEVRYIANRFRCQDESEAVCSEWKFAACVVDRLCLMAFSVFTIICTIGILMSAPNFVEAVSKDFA

[18] = target: Potassium voltage-gated channel subfamily KQT member 3 (Homo sapiens) (UniProt O43525); test: Inhibition of Kv7.3 (unknown origin) at 30 uM by manual patch clamp method relative to control
Kv7.1 = Kv7.1 (Homo sapiens, UniProt P51787); test: Inhibition of Kv7.1 (unknown origin) at 30 uM by manual patch clamp method relative to control
Chain of Kv7.1 (P51787 whole entry): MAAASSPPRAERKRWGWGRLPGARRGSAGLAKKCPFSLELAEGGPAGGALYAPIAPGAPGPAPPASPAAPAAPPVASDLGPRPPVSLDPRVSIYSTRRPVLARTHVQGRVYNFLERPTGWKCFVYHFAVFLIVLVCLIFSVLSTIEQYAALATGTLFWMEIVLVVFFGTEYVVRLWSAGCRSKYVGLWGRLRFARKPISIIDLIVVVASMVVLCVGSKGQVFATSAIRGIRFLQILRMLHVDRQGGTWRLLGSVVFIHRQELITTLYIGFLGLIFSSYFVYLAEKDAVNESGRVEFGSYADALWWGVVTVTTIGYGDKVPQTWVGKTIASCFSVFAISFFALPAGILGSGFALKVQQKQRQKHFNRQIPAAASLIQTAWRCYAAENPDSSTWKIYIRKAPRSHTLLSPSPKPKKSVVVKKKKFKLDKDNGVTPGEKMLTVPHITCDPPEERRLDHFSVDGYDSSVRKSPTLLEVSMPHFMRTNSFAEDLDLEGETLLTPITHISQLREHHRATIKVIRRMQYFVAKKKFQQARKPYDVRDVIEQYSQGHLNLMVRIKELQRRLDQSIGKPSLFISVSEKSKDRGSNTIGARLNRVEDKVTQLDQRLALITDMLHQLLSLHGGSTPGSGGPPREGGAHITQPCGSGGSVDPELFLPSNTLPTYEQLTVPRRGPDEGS

[19] = target: A-type potassium channel modulatory protein KCNIP2 (Homo sapiens) (UniProt Q9NS61); test: Inhibition of KCHiP (unknown origin) at 30 uM by manual patch clamp method relative to control
[20] = target: A-type voltage-gated potassium channel KCND3 (Homo sapiens, UniProt Q9UK17); test: Activation of Kv4.3 (unknown origin) at 30 uM by manual patch clamp method relative to control
[21] = target: Potassium voltage-gated channel subfamily A member 3 (Homo sapiens) (UniProt P22001); test: Inhibition of Kv1.3 (unknown origin) at 30 uM by manual patch clamp method relative to control
Chain of Potassium voltage-gated channel subfamily A member 3 (Homo sapiens) (P22001 whole entry): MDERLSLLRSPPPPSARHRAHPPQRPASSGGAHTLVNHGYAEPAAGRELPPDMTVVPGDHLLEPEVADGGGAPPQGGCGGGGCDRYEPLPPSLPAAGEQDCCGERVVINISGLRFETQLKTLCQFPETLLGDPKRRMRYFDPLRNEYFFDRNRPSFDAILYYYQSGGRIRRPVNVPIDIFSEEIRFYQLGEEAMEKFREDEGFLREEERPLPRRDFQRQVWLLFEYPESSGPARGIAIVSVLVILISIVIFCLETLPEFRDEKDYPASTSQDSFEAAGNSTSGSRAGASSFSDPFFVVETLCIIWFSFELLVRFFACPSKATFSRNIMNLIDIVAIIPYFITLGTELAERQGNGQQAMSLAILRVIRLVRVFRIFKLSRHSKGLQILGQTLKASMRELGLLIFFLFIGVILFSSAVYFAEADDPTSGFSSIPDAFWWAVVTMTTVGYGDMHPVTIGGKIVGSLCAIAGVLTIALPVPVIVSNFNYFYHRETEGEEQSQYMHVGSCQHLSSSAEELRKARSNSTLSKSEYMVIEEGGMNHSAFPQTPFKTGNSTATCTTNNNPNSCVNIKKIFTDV

[22] = target: Intermediate conductance calcium-activated potassium channel protein 4 (Homo sapiens) (UniProt O15554); test: Activation of Kca3.1 (unknown origin) at 30 uM by manual patch clamp method relative to control
Chain of Intermediate conductance calcium-activated potassium channel protein 4 (Homo sapiens) (O15554 whole entry): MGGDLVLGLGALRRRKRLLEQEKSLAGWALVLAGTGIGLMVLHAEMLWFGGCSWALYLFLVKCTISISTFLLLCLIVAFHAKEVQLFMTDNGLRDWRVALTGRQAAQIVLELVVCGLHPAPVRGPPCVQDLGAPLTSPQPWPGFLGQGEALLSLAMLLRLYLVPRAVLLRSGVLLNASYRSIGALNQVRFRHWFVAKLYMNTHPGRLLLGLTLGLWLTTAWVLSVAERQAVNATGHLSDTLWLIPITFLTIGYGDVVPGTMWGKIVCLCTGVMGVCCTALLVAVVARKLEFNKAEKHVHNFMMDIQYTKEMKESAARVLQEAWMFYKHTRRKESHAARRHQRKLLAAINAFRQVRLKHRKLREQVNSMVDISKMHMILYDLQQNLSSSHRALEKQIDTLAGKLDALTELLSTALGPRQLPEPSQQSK

[23] = target: Inward rectifier potassium channel 2 (Homo sapiens, UniProt P63252); test: Activation of Kir2.1 (unknown origin) at 30 uM by manual patch clamp method relative to control
Chain of Inward rectifier potassium channel 2 (P63252 whole entry): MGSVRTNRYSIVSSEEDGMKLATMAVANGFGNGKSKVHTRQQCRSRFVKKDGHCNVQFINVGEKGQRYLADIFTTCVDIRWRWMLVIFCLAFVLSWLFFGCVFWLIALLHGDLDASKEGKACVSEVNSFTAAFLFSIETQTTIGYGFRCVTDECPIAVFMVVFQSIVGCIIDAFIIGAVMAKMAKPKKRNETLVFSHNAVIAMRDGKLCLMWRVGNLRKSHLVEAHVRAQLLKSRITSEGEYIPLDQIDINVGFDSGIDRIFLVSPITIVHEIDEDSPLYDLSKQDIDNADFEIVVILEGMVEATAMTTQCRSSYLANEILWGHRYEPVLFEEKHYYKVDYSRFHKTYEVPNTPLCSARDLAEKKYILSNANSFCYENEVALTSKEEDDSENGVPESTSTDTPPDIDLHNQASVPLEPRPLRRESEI

[24] = AUC in rat at 3 mg/kg, po; assay type: ADME, organism-based; parameters: dose 3 mg/kg; conditions: in vivo
[25] = Elimination half life in rat at 3 mg/kg, po; assay type: ADME, organism-based; conditions: in vivo, read-out: beta t1/2 (converted)
[26] = Cmax in rat at 3 mg/kg, po; assay type: ADME, organism-based; parameters: route oral, dose 3 mg/kg; conditions: in vivo
[27] = Fraction unbound in mouse plasma; assay type: ADME, cell-free
[28] = Fraction unbound in human plasma; assay type: ADME, cell-free
[29] = Fraction unbound in rat plasma; assay type: ADME, cell-free
[30] = target: Sodium-dependent dopamine transporter (Homo sapiens) (UniProt Q01959); test: Displacement of [125I]RTI-55 from full length recombinant human dopamine transporter expressed in CHO-S cells at 30 uM after 180 mins by radiometric scintillation analysis relative to control; assay type: cell-based

In the case of `COc1ccc(C(=O)O)c(NC(=O)c2ccc(SC(F)(F)F)cc2)c1`, the EC50 [1] is reported as 28.5 µM, the EC50 [2] is reported as 16.5 µM and the Activity [3] is reported as 27%. For the same compound, the Activity ([4]; filed as activator) was 52%.

`O=C(O)Cc1cccc(NC(=O)c2ccc(C(F)(F)F)cc2)c1` showed an Activity [3] of -1% and an Activity [4] of 0%.

Compound `O=C(Nc1ccccc1C(=O)O)c1cccc(C(F)(F)F)c1` has an Activity [3] of 12% and an Activity [4] of 28%.

Work on `O=C(O)c1cccc(NC(=O)c2ccc(C(F)(F)F)cc2)c1` yielded an Activity [3] of 0% and an Activity [4] of -11%.

Work on `O=C(Nc1ccoc1C(=O)O)c1ccc(SC(F)(F)F)cc1` yielded an Activity [3] of 5% and an Activity [4] of 8%.

`O=C(Nc1ccccc1-c1nnn[nH]1)c1ccc2c(c1)CCCC2` gave an EC50 [2] of 13.1 µM, an Activity [5] of 21% and an Activity [6] of 24%.

In the case of `O=C(Nc1ccc(Cl)cc1C(=O)O)c1ccc(SC(F)(F)F)cc1`, the EC50 [1] is reported as 6.8 µM, the EC50 [2] is reported as 3.8 µM and the Activity ([3]; filed as activator) is reported as 76%. It also gave an Activity ([4]; filed as activator) of 69%.

`COc1ccc(NC(=O)c2ccc(SC(F)(F)F)cc2)c(C(=O)O)c1` showed an EC50 [1] of over 30 µM, an EC50 [2] of 20.2 µM and an Activity [3] of 31%. It also gave an Activity ([4]; filed as activator) of 50%.

For `O=C(Nc1cc(Br)ccc1C(=O)O)c1ccc(SC(F)(F)F)cc1`, the EC50 [1] was 5.9 µM, the EC50 [2] was 4.3 µM and the Activity ([3]; filed as activator) was 74%. The Activity ([4]; filed as activator) was 76%.

With `O=C(O)Cc1ccccc1NC(=O)c1ccccc1C(F)(F)F` the Activity [3] was -1% and the Activity [4] was 4%.

Work on `O=C(O)Cc1cccc(NC(=O)c2ccccc2C(F)(F)F)c1` yielded an Activity [3] of 0% and an Activity [4] of 2%.

For `O=C(Nc1ccc(F)cc1C(=O)O)c1ccc(SC(F)(F)F)cc1`, the EC50 [1] was over 30 µM, the EC50 [2] was 9.5 µM and the Activity ([3]; filed as activator) was 43%. For the same compound, the Activity ([4]; filed as activator) was 54%.

In the case of `O=C(Nc1cc(F)c(Br)cc1C(=O)O)c1ccc(SC(F)(F)F)cc1`, the inhibition [7] is reported as 77%, the inhibition (Rattus norvegicus [8]) is reported as 70% and the inhibition (Rattus norvegicus [9]) is reported as 79%. For the same compound, the inhibition [10] was 79%, the inhibition (Rattus norvegicus [11]) was 90% and the inhibition [12] was 69%. It also gave an inhibition [13] of 79%, an inhibition [14] of 55% and an inhibition [15] of 70%. It also gave an Activity [16] of -32%, an inhibition [17] of 7% and an inhibition [18] of 39%. The inhibition at 30 µM (Kv7.1) was 57%, the inhibition [19] was 76% and the Activity [20] was -21%. For the same compound, the inhibition [21] was 94%, the Activity [22] was -9% and the Activity [23] was -16%. The EC50 [1] was 5.5 µM, the EC50 [2] was 6.1 µM and the Activity ([3]; filed as activator) was 84%. For the same compound, the Activity ([4]; filed as activator) was 101%, the AUC [24] was 60.6 µM·h and the half-life [25] was 6.3 h. The Cmax [26] was 8.8 µM, the fraction unbound [27] was 0.052 and the fraction unbound [28] was 0.003. It also gave a fraction unbound [29] of 0.041 and an inhibition [30] of 67%.

`O=C(Nc1cccc2c1CCCC2)c1ccccc1-c1nnn[nH]1` showed an Activity [5] of 1% and an Activity [6] of 0%.

For `O=C(Nc1ccc([N+](=O)[O-])cc1C(=O)O)c1ccc(SC(F)(F)F)cc1`, the EC50 [1] was 26.5 µM, the EC50 [2] was 13.7 µM and the Activity ([3]; filed as activator) was 65%. For the same compound, the Activity ([4]; filed as activator) was 56%.

`O=C(O)c1cccc(NC(=O)c2ccccc2C(F)(F)F)c1` gave an Activity [3] of -1% and an Activity [4] of -14%.

`O=C(Nc1cnncc1C(=O)O)c1ccc(SC(F)(F)F)cc1` gave an Activity [3] of 1% and an Activity [4] of 1%.

Compound `O=C(Nc1ccc2c(c1)CCCC2)c1ccccc1-c1nnn[nH]1` has an Activity [5] of 1% and an Activity [6] of 0%.
